Assay results published in paper PMC6429159, “Evolution and Biological Evaluation of Matrinic Derivatives with Amantadine Fragments As New Anti-Influenza Virus Agents” (Molecules, 2019).
Counter-ions that a name gives are not always drawn.

Legend:
[1] = system: influenza virus A/hanfang/359/95 (H3N2); experiment: organism not typed; assay type: cell-based; conditions: MDCK cells; for IC50: 50% virus-inhibitory concentration after 40 hr at 37 °C, – = no anti-H3N2 activity at the maximum non-toxic concentration; for anti-H3N2 activity (in words): CPE assay
[2] = system: MDCK cells; experiment: Cytotoxicity assay; assay type: cell-based; conditions: 50% cytotoxic concentration, 48 hr
Description: A three-fold dilution compound was added to cell monolayer, and the cells continued to be cultivated for 48 hr, and then the CPE was recorded. The TC50 value of each compound was calculated by the methods of Reed & Muench.

SMILES	IC50 [1]	TC50 [2]	melting point	anti-H3N2 activity (in words) [1]
CC(C)(C)C(=O)OCCCC[C@@H]1[C@H]2CCCN3CCC[C@@H](CN1S(=O)(=O)c1cccc(C(F)(F)F)c1)[C@@H]23 [Compound 9l, 12N-m-Trifluoromethlybenzenesulfonyl matrinicbutylpivalate hydrochloride]	18.2 ± 3.2 µM	52.9 ± 8.0 µM	–	–
CC(C)(C)C(=O)OCCCC[C@@H]1[C@H]2CCCN3CCC[C@@H](CN1S(=O)(=O)c1ccc(C(F)(F)F)cc1)[C@@H]23 (as salt: hydrochloride) [Compound 9k, 12N-p-Trifluoromethlybenzenesulfonyl matrinic butyl pivalate hydrochloride]	–	–	219 to 221 °C	–
O=C(OCCCC[C@@H]1[C@H]2CCCN3CCC[C@@H](CN1S(=O)(=O)c1ccc(C(F)(F)F)cc1)[C@@H]23)C12CC3CC(CC(C3)C1)C2 [Compound 9a, 12N-p-Trifluoromethlybenzenesulfonyl matrinic butyl adamantine-1’-carboxylate hydrochloride]	16.5 ± 2.9 µM	19.5 ± 2.8 µM	–	–
O=C(OCCCC[C@@H]1[C@H]2CCCN3CCC[C@@H](CN1S(=O)(=O)c1cccc(C(F)(F)F)c1)[C@@H]23)C12CC3CC(CC(C3)C1)C2 (as salt: hydrochloride) [Compound 9d, 12N-m-Trifluoromethlybenzenesulfonyl matrinic butyl adamantine-1’-carboxylate hydrochloride]	–	–	190 to 191 °C	–
O=C(CC12CC3CC(CC(C3)C1)C2)OCCCC[C@@H]1[C@H]2CCCN3CCC[C@@H](CN1S(=O)(=O)c1cccc(C(F)(F)F)c1)[C@@H]23 [Compound 9e, 12N-m-Trifluoromethlybenzenesulfonyl matrinic butyl-1’-adamantaneacetatehydrochloride]	11.1 ± 1.5 µM	63.4 ± 2.3 µM	–	–
CCCC[C@@H]1[C@H]2CCCN3CCC[C@@H](CN1S(=O)(=O)c1ccccc1C(F)(F)F)[C@@H]23 [Compound 7c]	50 ± 1.1 µM	86.6 ± 3.8 µM	–	–
O=C(CC1CC2CCC1C2)OCCCC[C@@H]1[C@H]2CCCN3CCC[C@@H](CN1S(=O)(=O)c1ccc(C(F)(F)F)cc1)[C@@H]23 (stereo partly shown) [Compound 9i, 12N-p-Trifluoromethlybenzenesulfonyl matrinic butyl-2’-norbornane acetate hydrochloride]	25.7 ± 4.8 µM	129.0 ± 20.9 µM	–	–
CCCC[C@@H]1[C@H]2CCCN3CCC[C@@H](CN1S(=O)(=O)c1cccc(C(F)(F)F)c1)[C@@H]23 [Compound 7b]	28.9 ± 2.4 µM	86.6 ± 2.3 µM	–	–
CCCC[C@@H]1[C@H]2CCCN3CCC[C@@H](CN1S(=O)(=O)c1ccc(C(F)(F)F)cc1)[C@@H]23 [Compound 7a]	21.3 ± 1.9 µM	79.8 ± 4.7 µM	–	–
O=C(OCCCC[C@@H]1[C@H]2CCCN3CCC[C@@H](CN1S(=O)(=O)c1ccc(C(F)(F)F)cc1)[C@@H]23)C12CC3CC(CC(Br)(C3)C1)C2 (as salt: hydrochloride) [Compound 9c, 12N-p-Trifluoromethlybenzenesulfonylmatrinicbutyl-3’-bromoadamantane-1’-carboxylate hydrochloride]	–	–	222 to 223 °C	–
O=C(OCCCC[C@@H]1[C@H]2CCCN3CCC[C@@H](CN1S(=O)(=O)c1cccc(C(F)(F)F)c1)[C@@H]23)C12CC3CC(CC1C3)C2 [Compound 9h, 12N-m-Trifluoromethlybenzenesulfonylmatrinicbutyl-3’-noradamantane-1’-carboxylate hydrochloride]	–	59.7 ± 0.0 µM	–	complete loss in activity
O=C(CC12CC3CC(CC(C3)C1)C2)OCCCC[C@@H]1[C@H]2CCCN3CCC[C@@H](CN1S(=O)(=O)c1cccc(C(F)(F)F)c1)[C@@H]23 (as salt: hydrochloride) [Compound 9e, 12N-m-Trifluoromethlybenzenesulfonyl matrinic butyl-1’-adamantaneacetatehydrochloride]	–	–	155 to 156 °C	–
O=C(OCCCC[C@@H]1[C@H]2CCCN3CCC[C@@H](CN1S(=O)(=O)c1ccc(C(F)(F)F)cc1)[C@@H]23)C12CC3CC(CC1C3)C2 (as salt: hydrochloride) [Compound 9g, 12N-p-Trifluoromethlybenzenesulfonylmatrinicbutyl-3’-noradamantane-1’-carboxylate hydrochloride]	–	–	186 to 187 °C	–
CC(C)(C)C(=O)OCCCC[C@@H]1[C@H]2CCCN3CCC[C@@H](CN1S(=O)(=O)c1cccc(C(F)(F)F)c1)[C@@H]23 (as salt: hydrochloride) [Compound 9l, 12N-m-Trifluoromethlybenzenesulfonyl matrinicbutylpivalate hydrochloride]	–	–	162 to 164 °C	–
O=C(OCCCC[C@@H]1[C@H]2CCCN3CCC[C@@H](CN1S(=O)(=O)c1ccc(C(F)(F)F)cc1)[C@@H]23)C12CC3CC(CC(C3)C1)C2 (as salt: hydrochloride) [Compound 9a, 12N-p-Trifluoromethlybenzenesulfonyl matrinic butyl adamantine-1’-carboxylate hydrochloride]	–	–	231 °C (dec.)	–
O=C(OCCCC[C@@H]1[C@H]2CCCN3CCC[C@@H](CN1S(=O)(=O)c1ccc(C(F)(F)F)cc1)[C@@H]23)C12CC3CC(CC1C3)C2 [Compound 9g, 12N-p-Trifluoromethlybenzenesulfonylmatrinicbutyl-3’-noradamantane-1’-carboxylate hydrochloride]	–	38.5 ± 6.6 µM	–	complete loss in activity
CC(C)(C)C(=O)OCCCC[C@@H]1[C@H]2CCCN3CCC[C@@H](CN1S(=O)(=O)c1ccc(C(F)(F)F)cc1)[C@@H]23 [Compound 9k, 12N-p-Trifluoromethlybenzenesulfonyl matrinic butyl pivalate hydrochloride]	–	94.3 ± 11.3 µM	–	–
O=C(CC12CC3CC(CC(C3)C1)C2)OCCCC[C@@H]1[C@H]2CCCN3CCC[C@@H](CN1S(=O)(=O)c1ccc(C(F)(F)F)cc1)[C@@H]23 (as salt: hydrochloride) [Compound 9b, 12N-p-Trifluoromethlybenzenesulfonyl matrinic butyl-1’-adamantaneacetatehydrochloride]	–	–	227 °C (dec.)	–
O=C(CC1CC2CCC1C2)OCCCC[C@@H]1[C@H]2CCCN3CCC[C@@H](CN1S(=O)(=O)c1ccc(C(F)(F)F)cc1)[C@@H]23 (stereo partly shown) (as salt: hydrochloride) [Compound 9i, 12N-p-Trifluoromethlybenzenesulfonyl matrinic butyl-2’-norbornane acetate hydrochloride]	–	–	223 °C (dec.)	–
O=C(CC12CC3CC(CC(C3)C1)C2)OCCCC[C@@H]1[C@H]2CCCN3CCC[C@@H](CN1S(=O)(=O)c1ccc(C(F)(F)F)cc1)[C@@H]23 [Compound 9b, 12N-p-Trifluoromethlybenzenesulfonyl matrinic butyl-1’-adamantaneacetatehydrochloride]	28.4 ± 2.3 µM	61.9 ± 1.9 µM	–	–
O=C(OCCCC[C@@H]1[C@H]2CCCN3CCC[C@@H](CN1S(=O)(=O)c1cccc(C(F)(F)F)c1)[C@@H]23)C12CC3CC(CC1C3)C2 (as salt: hydrochloride) [Compound 9h, 12N-m-Trifluoromethlybenzenesulfonylmatrinicbutyl-3’-noradamantane-1’-carboxylate hydrochloride]	–	–	207 °C (dec.)	–
